Read-outs that look alike come from different tables or passages of the source.
Columns and labels:
Assay type in all cases: cell-based
[1] = test system: Hodgkin's lymphoma cells (L540cy); experiment: In vitro potency, CellTiter-Glo growth inhibition, L540cy; conditions: 96 h, read-out: IC50 L540cy
Experimental: (§1) In vitro potency was assessed on multiple cancer cell lines. All cell lines were authenticated by STR profiling at IDEXX Bioresearch and cultured for no more than 2 months after resuscitation. Cells cultured in log-phase growth were seeded for 24 hours in 96-well plates containing 150 μl RPMI 1640 supplemented with 20% FBS. Serial dilutions of antibody-drug conjugates in cell culture media were prepared at 4× working concentrations, and 50 μl of each dilution was added to the 96-well plates. Following addition of test articles, cells were incubated with test articles for 4 days at 37° C. After 96 hours, growth inhibition was assessed by CellTiter-Glo® (Promega, Madison, WI) and luminescence was measured on a plate reader. The IC50 value, determined in triplicate, is defined here as the concentration that results in 50% reduction in cell growth relative to untreated controls.
(§2) In the following Tables IC50 values for ADCs and campthothecin free drugs are given in ng/mL and […] concentrations, respectively. Cell viability was determined by CellTiter-Glo staining after 96 h exposure to ADC. ND=Not Determined. Ag1 is an antibody targeting a ubiquitous and readily internalizable antigen on cancer cells.

[2] = test system: Burkitt's lymphoma cells (Ramos); experiment: In vitro potency, CellTiter-Glo growth inhibition, Ramos; conditions: Homo sapiens, 96 h, read-out: IC50 Ramos
Experimental: as §1, §2

[3] = test system: acute myeloid leukemia cells (MOLM13); experiment: In vitro potency, CellTiter-Glo growth inhibition, MOLM-13; conditions: Homo sapiens, read-out: IC50 MOLM-13
Experimental: as §1, §2

[4] = test system: MDR(−) acute promyelocytic leukemia cells (HL-60); experiment: In vitro potency, CellTiter-Glo growth inhibition, HL-60; conditions: Homo sapiens, read-out: IC50 HL-60
Experimental: as §1, §2

[5] = test system: multiple myeloma cells (MM.1R); experiment: In vitro potency, CellTiter-Glo growth inhibition, MM.1R; conditions: 96 h, read-out: IC50 MM.1R
Experimental: as §1, §2

[6] = test system: B-lymphocyte cancer cells (U266); experiment: In vitro potency, CellTiter-Glo growth inhibition, U-266; conditions: Homo sapiens, read-out: IC50 U-266
Experimental: as §1, §2

[7] = test system: MDR(+) acute promyelocytic leukemia cells (HL60/RV); experiment: In vitro potency, CellTiter-Glo growth inhibition, HL60/RV; conditions: Homo sapiens, read-out: IC50 HL60/RV
Experimental: as §1, §2

[8] = test system: renal carcinoma cells (786-O); experiment: In vitro potency, CellTiter-Glo growth inhibition, 786-O; conditions: Homo sapiens, read-out: IC50 786-O
Experimental: as §1, §2

[9] = test system: melanoma cells (SK-MEL-5); experiment: In vitro potency, CellTiter-Glo growth inhibition, SK-MEL-5; conditions: Homo sapiens, read-out: IC50 SK-MEL-5
Experimental: as §1, §2

[10] = test system: B-lymphocyte cancer cells (SU-DHL-4); experiment: In vitro potency, CellTiter-Glo growth inhibition, SU-DHL-4; conditions: Homo sapiens, read-out: IC50 SU-DHL-4
Experimental: as §1, §2

[11] = test system: pancreatic cancer cells (BxPC3); experiment: In vitro potency, CellTiter-Glo growth inhibition, BxPC3; conditions: Homo sapiens, read-out: IC50 BxPC3
Experimental: as §1, §2

[12] = camptothecin free drugs, CellTiter-Glo
[13] = MOLM-13, camptothecin free drugs, 96 h, CellTiter-Glo
[14] = HL-60, camptothecin free drugs, 96 h, CellTiter-Glo
[15] = U-266, camptothecin free drugs, 96 h, CellTiter-Glo
[16] = 786-0, camptothecin free drugs, 96 h, CellTiter-Glo
[17] = SK-MEL-5, camptothecin free drugs, 96 h, CellTiter-Glo
[18] = SU-DHL-4, camptothecin free drugs, 96 h, CellTiter-Glo
[19] = BXPC-3, camptothecin free drugs, 96 h, CellTiter-Glo

CC[C@@]1(O)C(=O)OCc2c1cc1n(c2=O)Cc2c-1nc1cc3c(cc1c2CNC(=O)[C@@H](N)CCCCN)OCO3 [Compound 3h]
IC50 [1]: 7 nM
IC50 [2]: 12 nM
IC50 ([3]; MOLM-13, 96 h): 97 nM
IC50 ([4]; HL-60, 96 h): 552 nM
IC50 [5]: 13 nM
IC50 ([6]; U-266, 96 h): 36 nM
IC50 ([7]; HL-60, 96 h): 128 nM
IC50 ([8]; 786-0, 96 h): > 1000 nM
IC50 ([9]; SK-MEL-5, 96 h): 60 nM
IC50 ([10]; SU-DHL-4, 96 h): 14 nM
IC50 ([11]; BXPC-3, 96 h): 42 nM

CC[C@@]1(O)C(=O)OCc2c1cc1n(c2=O)Cc2c-1nc1cc3c(cc1c2CNC(=O)[C@@H](N)CCCNC(=N)N)OCO3 [Compound 3g]
IC50 [1, 12]: 4 nM
IC50 [2, 12]: 6 nM
IC50 [3, 13]: 57 nM
IC50 [4, 14]: 191 nM
IC50 [5, 12]: 6 nM
IC50 [6, 15]: 15 nM
IC50 [7, 14]: 51 nM
IC50 [8, 16]: > 1000 nM
IC50 [9, 17]: 34 nM
IC50 [10, 18]: 6 nM
IC50 [11, 19]: 18 nM

CC[C@@]1(O)C(=O)OCc2c1cc1n(c2=O)Cc2c-1nc1cc3c(cc1c2CNC(=O)[C@@H](N)CCC(N)=O)OCO3 [Compound 3m]
IC50 [1]: 76 nM
IC50 [2]: 34 nM
IC50 ([3]; MOLM-13, 96 h): 125 nM
IC50 ([4]; HL-60, 96 h): 823 nM
IC50 [5]: 30 nM
IC50 ([6]; U-266, 96 h): 86 nM
IC50 ([7]; HL-60, 96 h): > 1000 nM
IC50 ([8]; 786-0, 96 h): 51 nM
IC50 ([9]; SK-MEL-5, 96 h): 208 nM
IC50 ([10]; SU-DHL-4, 96 h): 71 nM
IC50 ([11]; BXPC-3, 96 h): 160 nM

CC[C@@]1(O)C(=O)OCc2c1cc1n(c2=O)Cc2c-1nc1cc3c(cc1c2CNC(=O)[C@@H](N)[C@@H](C)O)OCO3 [Compound 3l]
IC50 [1]: 27 nM
IC50 [2]: 8 nM
IC50 ([3]; MOLM-13, 96 h): 45 nM
IC50 ([4]; HL-60, 96 h): 298 nM
IC50 [5]: 22 nM
IC50 ([6]; U-266, 96 h): 57 nM
IC50 ([7]; HL-60, 96 h): > 1000 nM
IC50 ([8]; 786-0, 96 h): > 1000 nM
IC50 ([9]; SK-MEL-5, 96 h): 109 nM
IC50 ([10]; SU-DHL-4, 96 h): 16 nM
IC50 ([11]; BXPC-3, 96 h): 64 nM

CC[C@@]1(O)C(=O)OCc2c1cc1n(c2=O)Cc2c-1nc1cc3c(cc1c2CNC(=O)[C@@H](N)Cc1c[nH]cn1)OCO3 [Compound 3i]
IC50 [1, 12]: 321 nM
IC50 [2, 12]: 197 nM
IC50 [3, 13]: 996 nM
IC50 [4, 14]: > 1000 nM
IC50 [5, 12]: 147 nM
IC50 [6, 15]: 452 nM
IC50 [7, 14]: > 1000 nM
IC50 [8, 16]: 22 nM
IC50 [9, 17]: 414 nM
IC50 [10, 18]: 255 nM
IC50 [11, 19]: 331 nM

CC[C@@]1(O)C(=O)OCc2c1cc1n(c2=O)Cc2c-1nc1cc3c(cc1c2CNC(=O)[C@@H](N)CC(C)C)OCO3 [Compound 3]
IC50 [1]: 5 nM
IC50 [2]: 2 nM
IC50 ([3]; MOLM-13, 96 h): 8 nM
IC50 ([4]; HL-60, 96 h): 30 nM
IC50 [5]: 4 nM
IC50 ([6]; U-266, 96 h): 6 nM
IC50 ([7]; HL-60, 96 h): 194 nM
IC50 ([8]; 786-0, 96 h): > 1000 nM
IC50 ([9]; SK-MEL-5, 96 h): 15 nM
IC50 ([10]; SU-DHL-4, 96 h): 3 nM
IC50 ([11]; BXPC-3, 96 h): 9 nM

CC[C@@]1(O)C(=O)OCc2c1cc1n(c2=O)Cc2c-1nc1cc3c(cc1c2CNC(=O)[C@@H](N)Cc1c[nH]c2ccccc12)OCO3 [Compound 3n]
IC50 [1, 12]: 185 nM
IC50 [2, 12]: 18 nM
IC50 [3, 13]: 80 nM
IC50 [4, 14]: 526 nM
IC50 [5, 12]: 74 nM
IC50 [6, 15]: 62 nM
IC50 [7, 14]: > 1000 nM
IC50 [8, 16]: 83 nM
IC50 [9, 17]: 330 nM
IC50 [10, 18]: 27 nM
IC50 [11, 19]: 143 nM

CC[C@@]1(O)C(=O)OCc2c1cc1n(c2=O)Cc2c-1nc1cc3c(cc1c2CNC(=O)[C@@H](N)C(C)C)OCO3 [Compound 3b]
IC50 [1]: 6 nM
IC50 [2]: 1 nM
IC50 ([3]; MOLM-13, 96 h): 5 nM
IC50 ([4]; HL-60, 96 h): 23 nM
IC50 [5]: 4 nM
IC50 ([6]; U-266, 96 h): 8 nM
IC50 ([7]; HL-60, 96 h): 857 nM
IC50 ([8]; 786-0, 96 h): > 1000 nM
IC50 ([9]; SK-MEL-5, 96 h): 14 nM
IC50 ([10]; SU-DHL-4, 96 h): 2 nM
IC50 ([11]; BXPC-3, 96 h): 12 nM

CC[C@@]1(O)C(=O)OCc2c1cc1n(c2=O)Cc2c-1nc1cc3c(cc1c2CNC(=O)[C@@H](N)Cc1ccccc1)OCO3 [Compound 3f]
IC50 [1, 12]: 34 nM
IC50 [2, 12]: 4 nM
IC50 [3, 13]: 14 nM
IC50 [4, 14]: 88 nM
IC50 [5, 12]: 9 nM
IC50 [6, 15]: 17 nM
IC50 [7, 14]: > 1000 nM
IC50 [8, 16]: > 1000 nM
IC50 [9, 17]: 45 nM
IC50 [10, 18]: 5 nM
IC50 [11, 19]: 39 nM

CC[C@@]1(O)C(=O)OCc2c1cc1n(c2=O)Cc2c-1nc1cc3c(cc1c2CNC(=O)[C@@H](N)CC(=O)O)OCO3 [Compound 3j]
IC50 [1]: 687 nM
IC50 [2]: 99 nM
IC50 ([3]; MOLM-13, 96 h): 588 nM
IC50 ([4]; HL-60, 96 h): > 1000 nM
IC50 [5]: 318 nM
IC50 ([6]; U-266, 96 h): 436 nM
IC50 ([7]; HL-60, 96 h): > 1000 nM
IC50 ([8]; 786-0, 96 h): 26 nM
IC50 ([9]; SK-MEL-5, 96 h): 910 nM
IC50 ([10]; SU-DHL-4, 96 h): 145 nM
IC50 ([11]; BXPC-3, 96 h): 648 nM

CC[C@@]1(O)C(=O)OCc2c1cc1n(c2=O)Cc2c-1nc1cc3c(cc1c2CNC(=O)[C@@H](N)CCSC)OCO3 [Compound 3e]
IC50 [1]: 13 nM
IC50 [2]: 4 nM
IC50 ([3]; MOLM-13, 96 h): 16 nM
IC50 ([4]; HL-60, 96 h): 92 nM
IC50 [5]: 6 nM
IC50 ([6]; U-266, 96 h): 12 nM
IC50 ([7]; HL-60, 96 h): 370 nM
IC50 ([8]; 786-0, 96 h): > 1000 nM
IC50 ([9]; SK-MEL-5, 96 h): 27 nM
IC50 ([10]; SU-DHL-4, 96 h): 5 nM
IC50 ([11]; BXPC-3, 96 h): 19 nM

CC[C@@]1(O)C(=O)OCc2c1cc1n(c2=O)Cc2c-1nc1cc3c(cc1c2CNC(=O)[C@H](C)N)OCO3 [Compound 3a]
IC50 [1]: 12 nM
IC50 [2]: 6 nM
IC50 ([3]; MOLM-13, 96 h): 23 nM
IC50 ([4]; HL-60, 96 h): 106 nM
IC50 [5]: 8 nM
IC50 ([6]; U-266, 96 h): 20 nM
IC50 ([7]; HL-60, 96 h): 416 nM
IC50 ([8]; 786-0, 96 h): 381 nM
IC50 ([9]; SK-MEL-5, 96 h): 49 nM
IC50 ([10]; SU-DHL-4, 96 h): 8 nM
IC50 ([11]; BXPC-3, 96 h): 42 nM

CC[C@@]1(O)C(=O)OCc2c1cc1n(c2=O)Cc2c-1nc1cc3c(cc1c2CNC(=O)[C@@H](N)CCC(=O)O)OCO3 [Compound 3k]
IC50 [1, 12]: 415 nM
IC50 [2, 12]: 451 nM
IC50 [3, 13]: > 1000 nM
IC50 [4, 14]: > 1000 nM
IC50 [5, 12]: 576 nM
IC50 [6, 15]: > 1000 nM
IC50 [7, 14]: > 1000 nM
IC50 [8, 16]: 21 nM
IC50 [9, 17]: > 1000 nM
IC50 [10, 18]: 667 nM
IC50 [11, 19]: > 1000 nM

CC[C@@]1(O)C(=O)OCc2c1cc1n(c2=O)Cc2c-1nc1cc3c(cc1c2CNC(=O)C(C)(C)N)OCO3 [Compound 3d]
IC50 [1]: 4 nM
IC50 [2]: 1 nM
IC50 ([3]; MOLM-13, 96 h): 5 nM
IC50 ([4]; HL-60, 96 h): 25 nM
IC50 [5]: 3 nM
IC50 ([6]; U-266, 96 h): 4 nM
IC50 ([7]; HL-60, 96 h): 840 nM
IC50 ([8]; 786-0, 96 h): > 1000 nM
IC50 ([9]; SK-MEL-5, 96 h): 14 nM
IC50 ([10]; SU-DHL-4, 96 h): 3 nM
IC50 ([11]; BXPC-3, 96 h): 10 nM
